# In patent publication US20230345943A1, “METHOD AND PROCESS FOR COMPLETE ELIMINATION OF VARIOUS STEPS OF PEST GROWTH IN PLANTS USING DI[…] BASED ON ETHA[…] AND HYDROGEN PEROXIDE” (priority 2020, published 2023):
# Key:
# Chilo suppressalis = experiment: Field protocol against Chilo suppressalis in rice; format: in vivo; conditions: six-step protocol, dosage of 1 to 2 in one thousand from transplantation treasury to before harvest
# Excerpt: In this invention ethaneperoxoic acid used for the first time to fight with Chilo suppressalis with the below mentioned method: • Step 1: The dosage of 1 in one thousand in the transplantation treasury; • Step 2: At the time of transferring the seedlings to the field with the dosage of 1 in one thousand to fight with the first generation; • Step 3: 10 days after transferring the seedlings to the field with the dosage of 1 in one thousand to fight with the second generation; • Step 4: 30 days after transferring the seedlings to the field with the dosage of 1 in one thousand; • Step 5: 45 days after transferring the seedlings to the field with the dosage of 2 in one thousand and 1 in one thousand to fight with the third generation; • Step 6: before harvesting the rice with the dosage of 2 in one thousand.
# [1] = test system: fungus, bacteria and viruses and plant pests in all stages such as eggs, larva, adults; experiment: Spray with wetting agent to control plant pathogens and pests; format: in vivo; conditions: 3 liters (active ingredient at least 20%) plus 500 cc of non-ionic fatty amine compounds in 1000 liters of water
# Excerpt: For longer durability of Ethaneperoxoic acid based compounds, non-ionic fatty amine compounds (wetting agent) should be used in this method for the first time in two different ways, both within the formulation or added separately to the compound. These compounds cause the Ethaneperoxoic acid that is sprayed on the target to increase the duration of exposure of Ethaneperoxoic acid to the chitin surface of insects due to the reduction of surface tension of water droplets.
structure (smiles),measurement,setting,value
CC(=O)OO [ethaneperoxoic acid],damage due to the Chilo suppressalis,Chilo suppressalis,completely control
same,"effect in controlling fungus, bacteria and viruses and plant pests in all stages",[1],significant impressive effect
